# US20240382469A1, “COMBINATION THERAPY WITH DEUTERATED IMIDAZOQUINOLINES” (BIRDIE BIOPHARMACEUTICALS, INC., priority 2021, published 2024)
# What was measured:
# [1] = system: CT26 tumor cells; test: In vivo efficacy of deuterated compounds in combination with an anti-PD-1 antibody in CT26 animal model; parameters: species or system BALB/c mice; settings: for tumor size as compared to placebo group and to anti-PD-1 antibody alone group / tumor size over the experimental period: 1.6 μg compound s.c. in combination with 50 μg anti-PD-1 antibody i.p., FIG. 1; for tumor size as compared to placebo group and to anti-PD-1 antibody alone group: days 6, 9 and 12, p<0.05 for both comparisons; for tumor size over the experimental period: followed to day 28
# Protocol: Female BALB/c mice (5 to 6-week-old) were randomly divided into 5 groups (n=5 per group), including (1) placebo (PBS; s.c.); (2) anti-PD-1 antibody (50 μg; i.p.); (3) compound 1 and anti-PD-1 antibody; (4) compound 2 and anti-PD-1 antibody; (5) compound 3 and anti-PD-1 antibody.
# To challenge mice, CT26 tumor cells (1×10^6 in 0.1 mL) were injected subcutaneously on day 0. Then, mice in each group received totally three doses of placebo, anti-PD-1 antibody or indicated combination therapy on days 6, 9 and 12. In each dose of combination therapy, 1.6 μg of TLR7/8 agonist (compound 1, 2 or 3) was given subcutaneously, and 50 μg of anti-PD-1 antibody (mAb) was given intraperitoneally. All mice were sacrificed on day 28. The tumor size was determined twice a week by multiplication of caliper measurements based on the modified ellipsoidal formula: Tumor volume=½ (length × width^2). Mice with tumor length over 2 cm were considered dead and mice without measurable or palpable tumor masses were considered tumor-free. The significance of all comparisons was calculated by using t-test, and results considered significant when p<0.05.
# [2] = system: TC-1 cells; test: In vivo efficacy of compound 1 in combination with various therapeutic antibodies in TC-1 animal model; parameters: species or system C57BL/6 mice; settings: days 9, 12, 15, 18 and 21, p<0.05, FIG. 3
# Protocol: Female C57BL/6 mice (5 to 6-week-old) were randomly divided into 7 groups (n=5 per group), including (1) placebo (PBS, i.p.); (2) compound 1 (1.6 μg; s.c.); (3) compound 1 and anti-CD137 antibody; (4) compound 1 and anti-TIGIT antibody; (5) compound 1 and anti-OX40 antibody; (6) compound 1 and anti-LAG3 antibody; (7) compound 1 and anti-CD47 antibody.
# To challenge, each mouse was subcutaneously injected with 1×10^6 TC-1 cells in a volume of 0.1 mL into the left flank at day 0. Then, mice in each group received totally five doses of placebo, compound 1 or indicated combination therapy on days 9, 12, 15, 18 and 21. In each dose of combination therapy, 1.6 μg of compound 1 was given subcutaneously, and 200 μg of therapeutic antibody (anti-CD137, anti-TIGIT, anti-OX40, anti-LAG3 or anti-CD47 antibody) was given intraperitoneally. All mice were sacrificed on day 34. By using the same method as described in example 1, the tumor size was determined and the significance of all comparisons was calculated.
# [3] = system: CT26 tumor cells; test: In vivo efficacy of compound 1 or proto-resiquimod in combination with an anti-PD-1 antibody in CT26 animal model; parameters: species or system BALB/c mice
# Protocol: Female BALB/c mice (5 to 6-week-old) were randomly divided into 4 groups (n=5 per group), including (1) placebo (PBS; i.p.); (2) anti-PD-1 antibody (50 μg; i.p.); (3) compound 1 (1.6 μg; s.c.) and anti-PD-1 antibody (50 μg; i.p.); (4) proto-resiquimod (1.6 μg; s.c.) and anti-PD-1 antibody (50 μg; i.p.).
# To challenge mice, CT26 tumor cells (1×10^6 in 0.1 mL) were injected subcutaneously on day 0. Then, mice in each group received totally three doses of placebo, anti-PD-1 antibody or indicated combination therapy. In placebo group, mice received PBS (s.c.) on days 7, 14 and 21. In anti-PD-1 antibody alone group, mice received 50 μg of anti-PD-1 antibody (i.p.) on days 7, 10 and 14. In each combination therapy group, mice received 1.6 μg of TLR7/8 agonist (compound 1 or proto-resiquimod) (s.c.) on days 7, 14 and 21, and 50 μg of anti-PD-1 antibody (i.p.) on days 7, 10 and 14. All mice were sacrificed on day 28. By using the same method as described in example 1, the tumor size was determined and the significance of all comparisons was calculated.
Structure (SMILES),tumor size as compared to placebo group and to anti-PD-1 antibody alone group [1],tumor size over the experimental period [1],"tumor inhibitory effect compared with the other deuterated compounds ([1]; in combination with anti-PD-1 antibody, p<0.05 for each comparison)",tumor size as compared to placebo group or compound 1 alone group ([2]; 1.6 μg compound 1 s.c. in combination with 200 μg anti-CD47 antibody i.p.),tumor size as compared to placebo group or compound 1 alone group ([2]; 1.6 μg compound 1 s.c. in combination with 200 μg anti-CD137 antibody i.p.),tumor size as compared to placebo group or compound 1 alone group ([2]; 1.6 μg compound 1 s.c. in combination with 200 μg anti-LAG3 antibody i.p.),tumor size as compared to placebo group or compound 1 alone group ([2]; 1.6 μg compound 1 s.c. in combination with 200 μg anti-OX40 antibody i.p.),tumor size as compared to placebo group or compound 1 alone group ([2]; 1.6 μg compound 1 s.c. in combination with 200 μg anti-TIGIT antibody i.p.),"tumor size ([3]; 1.6 μg TLR7/8 agonist s.c. days 7, 14 and 21 in combination with 50 μg anti-PD-1 antibody i.p. days 7, 10 and 14, FIG. 2)","tumor inhibitory effect compared with proto-resiquimod ([3]; in combination with anti-PD-1 antibody, p<0.05)"
[2H]C([2H])([2H])C(O)(Cn1c(COCC)nc2c(N)nc3ccccc3c21)C([2H])([2H])[2H] [Compound 3],significantly reduce tumor size,"initially well controlled, however, slightly grew at the last week",–,–,–,–,–,–,–,–
[2H]C([2H])([2H])C([2H])([2H])OCc1nc2c(N)nc3ccccc3c2n1CC(C)(C)O [Compound 1],significantly reduce tumor size,almost completely suppressed tumor size,outstanding and significant tumor inhibitory effect than compounds 2 or 3,significantly suppress tumor size,significantly suppress tumor size,significantly suppress tumor size,significantly suppress tumor size,significantly suppress tumor size,potently inhibit tumor size,more significant tumor inhibitory effect than proto-resiquimod
[2H]C([2H])([2H])C(O)(C([2H])([2H])[2H])C([2H])([2H])n1c(COCC)nc2c(N)nc3ccccc3c21 [Compound 2],significantly reduce tumor size,"initially well controlled, however, slightly grew at the last week",–,–,–,–,–,–,–,–
